Assay results taken from patent US9096538B2, “Pharmaceutical comprising PPAR agonist” (Senju Pharmaceutical Co., Ltd., priority 2005, dated 2015).

Key:
[1] = system: monkey meibomian gland epithelial cell; assay: Test Example 3: increase in cell number, cultured monkey meibomian gland epithelial cell (Cell Counting Kit-8); format: cell-based, cynomolgus monkey; conditions: 48 + 48 hours; for Cell proliferation (%): no addition group = 100%, average ± standard deviation, N = 5
Description: A female cynomolgus monkey (Environmental Biological Life Science Research Center) was used. The experimental animal was used according to the International Guiding Principles for Biomedical Research Involving Animals.
A meibomian gland epithelial cell was prepared from a monkey eyelid. An eyelid was isolated, and stored in Dulbecco's phosphate buffered saline (D-PBS; Invitrogen), and this was transferred to a clean bench. The following cell preparation procedures were all performed sterilely.
After the isolated eyelid was immersed in 80% ethanol for 30 seconds, the eyelid was washed with D-PBS with 1% penicillin-streptomycin (Invitrogen) added thereto three times, and transferred to a minimum essential medium (MEM; Invitrogen). A fat tissue and a muscle tissue surrounding a meibomian gland tissue were removed under a stereomicroscope, and this was transferred to MEM containing 0.475 U/mL of collagenase A (Roche Diagnostics) and 2.4 U/mL of dispase II (Roche Diagnostics), and incubated at 37° C. overnight. After completion of incubation, the enzyme-treated tissue was placed again under the stereomicroscope, eyelashes and an eyelid connective tissue were removed, and a meibomian gland tissue was isolated. To the isolated gland tissue was added 1 mL of trypsin-EDTA (Invitrogen), and this was incubated at 37° C. for 5 minutes. After incubation, to this was added 9 mL of MEM containing 10% FBS to stop the enzymatic reaction, then, suction and exhaustion were repeated five times using a 10 mL pipette and, further, five times using an injection syringe equipped with a 21 G injection needle to disperse tissue-constituting cells. […] The cell suspension which had passed through the filter was recovered in a 50 mL centrifuge tube, and subjected to centrifugation at room temperature and 1,500 rpm for 5 minutes. To a cell layer containing an objective cell obtained by centrifugation was added 80 μL of D-PBS containing 0.5% bovine serum albumin (BSA; Sigma-Aldrich) to sufficiently suspend the cell, to this was added 20 μL of Anti-Fibroblast Microbeads (Militenyi Biotec), and this was allowed to stand at room temperature for 30 minutes. After completion of the reaction with an antibody, to this was added 2 mL of D-PBS containing 0.5% BSA, and this was subjected again to centrifugation at room temperature and 1,500 rpm for 5 minutes. To a cell layer containing an objective cell obtained by centrifugation was added 1 mL of D-PBS containing 0.5% BSA to sufficiently suspend the cell, and this was added dropwise to an LD column (Militenyi Biotec) equilibrated in advance using a column washing solution (D-PBS containing 2 mM EDTA (Dojindo Laboratories) and 0.5% BSA). Then, 2 mL of the column washing solution was added dropwise to the LD column. […] The cell recovered in the centrifuge tube was subjected again to centrifugation at room temperature and 1,500 rpm for 5 minutes to remove the supernatant. To this precipitation was added 1 mL of Defined Keratinocyte-Serum Free Medium (DK-SFM; Invitrogen) to suspend the cell and thereby, a meibomian gland epithelial cell suspension was prepared. The prepared cell was seeded on a culture dish (IWAKI) for cell culturing having a diameter of 3.5 cm which had been coated with a type I collagen solution (Nitta Gelatin Inc.) in advance, and to which 3 mL of DK-SFM had been added. The seeded cell was cultured in an incubator (SANYO) set at 37° C., 5% CO2, 95% air, and 100% humidity, and the culture medium was exchanged with a fresh culture medium every 48 hours until the test day.
Each test substance was dissolved in ethanol (Wako Pure Chemical Industries, Ltd.) to a 200-fold concentration of a final concentration in the culture medium, and this was stored at −80° C. until immediately before use.
As a culture dish for a cell proliferation promotion test, a 96-well culture dish for tissue culture (Corning) was used.

[2] = system: normal human corneal epithelial cell; assay: Test Example 6: increase in cell number, normal human corneal epithelial cell, 48 hours (Cell Counting Kit-8); format: cell-based; conditions: 10^−8 M, no addition group = 100%, average ± standard deviation, N = 4 to 5
Description: (§1) A normal human corneal epithelial cell (KURABO) was used.
As the test substance, the following compounds were used. • PPARδ Agonist: GW-501516 (Alexis), GW-0742 (Sigma-Aldrich)
Only basal medium (no addition group) • [2] Basal medium+GW-501516 (final concentration: 0.01 μM) • [3] Basal medium+GW-0742 (final concentration: 0.01 μM)

[3] = system: normal human corneal epithelial cell; assay: Test Example 5: increase in cell number, normal human corneal epithelial cell, 24 hours (Cell Counting Kit-8); format: cell-based; conditions: mEGF 1 ng/mL, no addition group = 100%, average ± standard deviation, N = 3 to 4
Description: as §1
As the test substance, the following compounds were used. PPARδ agonist: L-165041 (Sigma-Aldrich), GW-501516 (Alexis)
In addition, as a positive control for confirming the cell proliferation promoting effect, a medium in which a mouse-derived epithelial growth factor (mEGF) contained in an HCGS proliferation additive set (KURABO) was added to a basal medium (basal medium+1 ng/mL mEGF) was used.
This cell suspension was seeded on a fibronectin-coated multiwell plate (24 well, BECTON DICKINSON) so that the cell number became 2×10^4 cells/500 μL/well (since the bottom area is 2 cm^2, the number is 1×10^4 cells/cm^2).
Further, 24 hours thereafter, the culture medium was exchanged with each 400 μL of the following culture media. • [1] Only basal medium (no addition group) • [2] Basal medium+mEGF (final concentration: 1 ng/mL; positive control group) • [3] Basal medium+L-165041 (final concentration: 0.01 μM and 0.1 μM) • [4] Basal medium+GW-501516 (final concentration: 0.001 μM and 0.01 μM)

[4] = system: rabbit corneal epithelial cell; assay: Test Example 1: increase in cell number, cultured rabbit corneal epithelial cell (Cell Counting Kit-8); format: cell-based; conditions: 48 hours, no addition group = 100%, average ± standard deviation, N = 5
Description: A male rabbit (Japanese white, […] LABES Co., Ltd.) was used. The experimental animal was used according to the International Guiding Principles for Biomedical Research Involving Animals.
A corneal epithelial cell was prepared from rabbit eyeballs. A cornea was excised from isolated eyeballs, and stored in Dulbecco's phosphate buffered saline (D-PBS; Invitrogen), and this was transferred to a clean bench. The following cell preparation procedures were all performed sterilely.
The isolated corneal segment was washed with D-PBS with 1% penicillin-streptomycin (Invitrogen) added thereto three times, and was transferred to a minimum essential medium (MEM; Invitrogen). A corneal endothelial cell and a Descemet's membrane of the corneal segment immersed in MEM were peeled with a knife (Alcon) for ocular operation, and the corneal segment (corneal stroma and corneal epithelium) after peeling was transferred to MEM to which dispase II (Roche Diagnostics) had been added to 2.4 U/mL. This was incubated at 37° C. for 1 hour and, thereafter, the dispase II-treated corneal segment was transferred to MEM. The corneal epithelium of the corneal segment immersed in MEM was peeled with the knife for ocular operation, and the corneal segment residue (corneal stroma) was removed from MEM. The peeled corneal epithelial cell and the MEM containing same were recovered in a 50 mL centrifuge tube, subjected to centrifugation at 1,500 rpm for 5 minutes at room temperature. The supernatant was discarded to give a corneal epithelial cell layer. To the corneal epithelial cell layer was added 1 mL of trypsin-EDTA (Invitrogen) and, after thorough mixing, the cells were incubated at 37° C. for 5 minutes to dissociate adhesion between the cells. To this was added 9 mL of MEM containing 10% fetal bovine serum (FBS; Invitrogen) to stop the enzymatic reaction, and this was subjected again to centrifugation at room temperature and 1,500 rpm for 5 minutes to obtain the corneal epithelial cell layer. To the resulting corneal epithelial cell layer was added […] of a serum-free liquid medium for proliferating a normal rabbit corneal epithelial cell (RCGM2; Kurabo Industries LTD.) to suspend the cell, and this was seeded into a culture dish (IWAKI) for culturing a cell having a diameter of 10 cm, to which 9 mL of RCGM2 had been added. […] The culture medium was exchanged with a fresh culture medium every 48 hours until the test day.
As the test substance, the following compounds were used. • PPARα agonist: WY-14643 (Calbiochem) and fenofibrate (Sigma-Aldrich) • PPARδ agonist: L-165041 (Sigma-Aldrich)
(§2) For studying the effect of promoting cell proliferation by each test substance, a culture medium prepared by removing a mouse-derived epithelial growth factor (mEGF) attached to RCGM2, from RCGM2, was used as a basal medium, while as a positive control for confirming the effect of promoting cell proliferation, a medium with an mEGF added thereto (basal medium+10 ng/mL mEGF) was used according to instructions of an RCGM2 preparation protocol.
As a culture dish for a test of cell proliferation promotion, a 96-well culture dish for tissue culture (Corning) was used. On the day before the test, each 50 μL of 0.01% type I collagen (Nitta Gelatin Inc.) was dispensed into each well of the culture dish, and coating was performed at 4° C. until immediately before the test. On the test day, after a type I collagen solution was removed, the bottom of the culture dish was washed three times using D-PBS, and this was used in the test as a collagen-treated culture dish.
In the test, a rabbit corneal epithelial cell which had been cultured to subconfluent in a culture dish having a diameter of 10 cm was used. After the culture medium was removed, the bottom of the culture dish was washed two times using D-PBS, to this was added 1 mL of trypsin-EDTA, this was incubated at 37° C. for 5 minutes and thereby, the cell was peeled from the bottom of the culture dish. […]

[5] = system: rabbit corneal epithelial cell; assay: Test Example 2: increase in cell number, cultured rabbit corneal epithelial cell, 120 hours (Cell Counting Kit-8); format: cell-based; conditions: mEGF 10 ng/mL, no addition group = 100%, average ± standard deviation, N = 5
Description: A male rabbit (Japanese white, weight: about 1.5 kg, […] LABES Co., Ltd.) was used. The experimental animal was used according to the International Guiding Principles for Biomedical Research Involving Animals.
A rabbit corneal epithelial cell was prepared using the same process as that of (Test example 1).
As the test substance, the following compounds were used. • PPARδ agonist: L-165041 (Sigma-Aldrich) and GW-501516 (Alexis)
as §2
Collagen treatment of the culture dish was performed using the same process as that of (Test Example1).
In the test, a rabbit corneal epithelial cell which had been cultured to subconfluent in a culture dish having a diameter of 10 cm was used. After the culture medium was removed, the bottom of the culture dish was washed two times using D-PBS, to this was added 1 mL of trypsin-EDTA, this was incubated at 37° C. for 5 minutes and thereby, the cell was peeled from the bottom of the culture dish. After incubation, 9 mL of MEM containing 10% FBS was added to the culture dish to stop the enzymatic reaction, and this was subjected to centrifugation at room temperature and 1,500 rpm for 5 minutes to obtain a corneal epithelial cell layer. To the resulting cell was added an appropriate amount of RCGM2 to a cell concentration of 1×10^5 cells/mL to suspend the cell. Each 64 μL of this cell suspension was dispensed in each well at the cell number per bottom area (0.32 cm^2) of the collagen-treated 96-well culture dish for tissue culture of […]. […] After 24 hours from cell seeding, the culture medium was discarded, and each 100 μL of the following culture media were freshly dispensed into each well of the culture dish. • [1] Only basal medium (no addition group) • [2] Basal medium+mEGF (final concentration: 10 ng/mL; positive control group) • [3] Basal medium+L-165041 (final concentration: 0.1 μM and 1 μM) • [4] Basal medium+GW-501516 (final concentration: 0.01 μM and 0.1 μM)
The culture supernatant of each well was removed every 48 hours from exchange of the culture medium containing a test substance, and each 100 μL of the freshly prepared culture medium was dispensed into each well.

With `Cc1c(C)c2c(c(C)c1O)CCC(C)(COc1ccc(CC3SC(=O)NC3=O)cc1)O2` (stereo not shown) [troglitazone] the “Cell proliferation (%)” value ([1]; 10^−6 M) was 99.9 ± 1.9% and the “Cell proliferation (%)” value ([1]; 10^−7 M) was 101.6 ± 4.0%.
`Cc1cc(SCc2sc(-c3ccc(C(F)(F)F)c(F)c3)nc2C)ccc1OCC(=O)O` [GW-0742, (4-(((2-(3-fluoro-4-(trifluoromethyl)phenyl)-4-methyl-5-thiazolyl)methyl)thio)-2-methylphenoxy)acetic acid] was tested, and the “Cell proliferation (%)” value [2] was 124.1 ± 13.5%.
In the case of “mEGF: mouse-derived epithelial growth factor, positive control for cell proliferation (NSYPGCPSSYDGYCLNGGVCMHIESLDSYTCNCVIGYSGDRCQTRDLRWWELR; not fully specified; Epidermal growth factor; UniProt P01132 977-1029, looked up)”, the “Cell proliferation (%)” value [3] is reported as 112.1 ± 1.5%, the “Cell proliferation (%)” value ([4]; mEGF 10 ng/mL) is reported as 144.1 ± 23.1% and the “Cell proliferation (%)” value [5] is reported as 222.1 ± 50.9%.
In the case of `Cc1cccc(Nc2cc(Cl)nc(SCC(=O)O)n2)c1C` [WY-14643, ((4-chloro-6-((2,3-dimethylphenyl)amino)-2-pyrimidinyl)thio)acetic acid], the “Cell proliferation (%)” value ([4]; 10^−6 M) is reported as 155.5 ± 9.4% and the “Cell proliferation (%)” value ([4]; 10^−7 M) is reported as 148.9 ± 15.0%.
With `CC(C)OC(=O)C(C)(C)Oc1ccc(C(=O)c2ccc(Cl)cc2)cc1` [fenofibrate, 1-methylethyl 2-(4-(4-chlorobenzoyl)phenoxy)-2-methylpropionate] the “Cell proliferation (%)” value ([4]; 10^−5 M) was 147.0 ± 3.2%, the “Cell proliferation (%)” value ([4]; 10^−6 M) was 147.3 ± 11.8% and the “Cell proliferation (%)” value ([1]; 10^−5 M) was 127.8 ± 5.2%. The “Cell proliferation (%)” value ([1]; 10^−6 M) was 114.5 ± 4.5% and the “cell proliferation compared to the no addition group (in words)” value ([1]; p<0.01 where significant) was “significantly higher than in the no addition group”.
